The values that follow come from US8063079B2, “Cyclopropyl compounds” (Eli Lilly and Company, priority 2008, dated 2011).

Values joined by “and” are separate entries in the source; they are usually repeats but may differ in a detail not shown here. Equal values may be shown once.

The subject of series [1] is plasma glucose in male Wistar rats. Briefly: Oral Glucose Tolerance Test (OGTT). The format is in vivo, rat. Here is the method:
Male Wistar rats at a weight of 225-250 g, are kept on regular diet and with normal light cycle and conditions. For the study, rats are fasted overnight before their exact weights are measured, and are randomized into groups of similar weights (n=4 per group). The compound is suspended in a 1:1 mixture of solutol/ethanol in a bath sonicator (10% of total volume). The obtained suspension is then diluted with 9 volumes of 10% aqueous solutol solution, and the compound is dosed orally at 1, 3, 6, 10, 20, and 30 mg/kg orally. Rats are given a 2 g/kg oral glucose bolus 2 hours after compound administration. Blood is collected via tail bleed at 0, 15, 30, 60, 90 and 120 minutes post glucose administration. Collected blood is placed into ethylenediaminetetraacetic acid (EDTA) tubes at volume of 400 μL per sample, and the samples are kept on ice. Plasma is isolated and stored at −20° C. until samples are analyzed for glucose and compound exposure. Area under the plasma glucose curve (glucose AUC) is calculated for each group and the percentage decrease in the glucose AUC versus the control group is used as a measure of efficacy of the compound to decrease plasma glucose.

A short description of series [2]: Blood Brain Barrier Permeability. The conditions noted are these: male CF-1 mice, IV bolus 2.17 μmole/kg, five minutes post dose. It counts as in vivo, mouse. The procedure:
A stock compound solution is prepared in dimethylsulfoxide at 10 mM. A dose solution is then prepared at 1 mM by diluting 100 μL of the stock with 900 μL of propylene glycol. The dose is administered as an IV bolus (2.2 mL/kg) via the tail vein into six male CF-1 mice (approximately 23 g) for a target dose of 2.17 μmole/kg. Mice are euthanized using both CO2 and cervical dislocation. Three mice are sacrificed 5 minutes post dose and three 60 minutes post dose. Blood is collected from each animal via cardiac puncture, and plasma is prepared using sodium EDTA, transferred into polypropylene sample tubes and immediately frozen using dry ice. […]
MS/MS is effected using a Sciex API 4000 triple quadrupole mass spectrometer equipped with a turbo ion spray source. […] Column effluent is diverted to waste from 0-2.8 minutes and then directed into the mass spectrometer from 2.8-4.0 minutes MS/MS transitions monitored are 560/84. Quantitation of compound in test samples is achieved by comparing peak area values to a quadratic equation weighted 1/x^2 derived from the nominal concentrations of the calibration standards and their respective peak areas. Upper and Lower Limits of Quantitation are determined by the back calculated recoveries of calibration standards that exceeded +/−20% of theory. […]

A further series concerns the target T1, human islet GK isoform (Homo sapiens, UniProt P35557).
T1 construct: (His)6; made in house; host or cells: E. coli
T1 sequence (P35557 1-465): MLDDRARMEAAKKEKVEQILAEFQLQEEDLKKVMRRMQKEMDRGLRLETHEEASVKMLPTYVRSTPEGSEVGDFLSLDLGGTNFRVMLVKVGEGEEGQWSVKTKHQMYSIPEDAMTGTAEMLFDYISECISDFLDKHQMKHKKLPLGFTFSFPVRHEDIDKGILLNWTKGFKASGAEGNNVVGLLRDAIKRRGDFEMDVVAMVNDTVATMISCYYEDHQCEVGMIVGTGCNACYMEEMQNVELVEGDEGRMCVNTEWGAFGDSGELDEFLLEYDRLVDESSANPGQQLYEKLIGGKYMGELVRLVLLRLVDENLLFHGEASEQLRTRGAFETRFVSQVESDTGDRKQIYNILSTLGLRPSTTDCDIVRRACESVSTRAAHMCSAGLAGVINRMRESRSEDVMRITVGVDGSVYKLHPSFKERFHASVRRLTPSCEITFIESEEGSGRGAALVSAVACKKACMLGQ
Description: Glucokinase Assay. The format is biochemical. Here is the method: The human islet GK isoform is expressed in E. coli as (His)6-tagged fusion protein and purified with metal chelate affinity chromatography, see e.g. Tiedge et al., Biochem. Biophys. Acta 1337, 175-190, 1997. After purification the enzyme is stored in aliquots at concentration 0.8 mg/ml in 25 mM sodium phosphate, 150 mM sodium chloride, 100 mM imidazole, 1 mM dithiothreitol, 50% glycerol at −80° C. The assay is performed in flat bottom 96-well plates in a final incubation volume of 100 μL. The incubation mixture consists of 25 mM 4-(2-hydroxyethyl)-1-piperazineethanesulfonic acid (HEPES) (pH7.4), 50 mM potassiumchloride, 2.5 mM magnesiumchloride, 2 mM dithiothreitol, 4 U/ml glucose-6-phosphate dehydrogenase from Leuconostoc mesenteroides, 5 mM ATP, 1 mM NAD and a set concentration of glucose. Test compounds are dissolved in dimethylsulfoxide and then added to the reaction mixture giving the final dimethylsulfoxide concentration of 10%. The reaction is initiated by addition of 20 μL GK and run for 20 min at 37° C. The amount of formed NADH is measured as an increase in absorbance at 340 nm using a microplate reader. Absorbance values are used for EC50 calculations.

The subject of series [3] is Rat insulinoma INS-1E cells. Briefly: Glycolysis Assay. As to conditions: INS1-E cells, 8 mM glucose, n=4, read-out: mean EC50 of stimulation of glucose metabolism. It counts as cell-based.
Description: Rat insulinoma INS-1E cells are maintained at 37° C., 5% CO2, 95% humidity in 1640 medium supplemented with 11 mM glucose, 5% Fetal Bovine Serum, 50 μM 2-Mercaptoethanol, 1 mM pyruvate, 10 mM HEPES and antibiotics. Prior to assay, cells are trypsinized, pelleted by centrifugation and seeded into 96-well tissue culture assay plates at the density of 30,000 cells/well. Cells are allowed to attach and incubated for 48 hours at 37° C., 5% CO2. On the assay day, cells are washed with and incubated in 200 μL Earle's Balanced Salt Solution (EBSS) buffer supplemented with 0.1% Bovine Serum Albumin (BSA). After 30 minutes incubation, the buffer is removed and 100 μL EBSS buffer containing 0.1% BSA, 8 mM glucose and the compound is added to cells. Immediately after, 20 μL of CellTiter 96® AQueous One Solution Reagent is added to cells and cells are incubated at 37° C. for an additional hour. At the end of incubation absorbance at 490 nm is read. Absorbance values are used for EC50 calculations.

For orientation: EC50 means the concentration giving half of the maximal effect.

`O=C(Nc1ncc(SCCN2CCCC2)s1)[C@]1(c2ccc(S(=O)(=O)C3CC3)cc2)C[C@H]1C1CCCCC1` [Example 1, (1R,2S)-2-Cyclohexyl-1-(4-cyclopropanesulfonyl-phenyl)-cyclopropanecarboxylic acid [5-(2-pyrrolidin-1-yl-ethylsulfanyl)-thiazol-2-yl]-amide]: in series [1] (30 mg/kg oral, 2 g/kg oral glucose bolus 2 hours after compound), the “maximal lowering of glucose AUC versus the untreated control group” value amounted to 42%. Moreover, the “average compound concentration in plasma at which a 20% glucose AUC decrease occurs” value in series [1] (interpolation of the data) was 99 ng/ml and 179 nM. Further, the “compound dose corresponding to a 20% glucose AUC decrease” value in series [1] (interpolation of the data, oral) worked out at 6.9 mg/kg. The “effect on plasma glucose” value in series [1] (oral 1-30 mg/kg, fasted and postprandial glucose levels) is listed as “decreases plasma glucose in a dose-dependent manner”. The “mean total brain level” value in series [2] was 0.539 nmol/g. The Kp at 5 min in series [2] (mouse, brain/plasma, read-out: mean brain/plasma ratio) turned out to be 0.17. Moreover, the EC50 at human islet GK isoform (10 mM glucose, n=5, read-out: EC50 of GK activation) was determined as 42 ± 42 nM; in series [3] it was 579 ± 139 nM. Moreover, the “enzyme activity at lower glucose concentrations” value on human islet GK isoform (lower glucose concentrations) was “increased the enzyme activity in a concentration dependent manner”.
